Source: patent US4220644A, “7-Acylamino-3-(substituted tetrazolyl thiomethyl) cephalosporins” (SmithKline Corporation, priority 1976, dated 1980)
≈ marks a conversion by molar mass, not a printed value. Where two headings read alike, the source gives them in different places.

Legend:
Proteus morgani 179 = test: MIC in vitro (Table 1), Proteus morgani 179; format: cell-based
Text: (§1) Compound names corresponding to numbers are given in the experimental section. For comparative purposes, data for cephamandole, which is 7-mandelamido-3-(1-methyltetrazol-5-ylthiomethyl)-3-cephem-4-carboxylic acid, is also given in Tables 1 and 2.

Salmonella ATCC 12176 = test: MIC in vitro (Table 1), Salmonella ATCC 12176; format: cell-based
Text: as §1, with “The compounds of Formula I have antibacterial activity against both Gram-positive and Gram-negative organisms. […] Compound” for “Compound”

Kleb. pneumo. SK 1200 = test: MIC in vitro (Table 1), Kleb. pneumo. SK 1200; format: cell-based
Text: as §1

E. coli SK 12140 = test: MIC in vitro (Table 1), E. coli SK 12140; format: cell-based; conditions: Escherichia coli, SK12140, in vitro
Text: as §1

S. aureus SK 23390 = test: MIC in vitro (Table 1), S. aureus SK 23390; format: cell-based; conditions: Staphylococcus aureus
Text: as §1

Entero. cloacae HH 31254 = test: MIC in vitro (Table 1), Entero. cloacae HH 31254; format: cell-based; conditions: Enterobacter cloacae
Text: as §1

E. coli 12140 = test: In vivo mouse protection (Table 2), E. coli 12140
Text: as §1

Strep. Faecalis HH 34358 = test: MIC in vitro (Table 1), Strep. Faecalis HH 34358; format: cell-based; conditions: in vitro, Strep. Faecalis HH 34358
Text: as §1

Kleb. pneumo. SK 4200 = test: MIC in vitro (Table 1), Kleb. pneumo. SK 4200; format: cell-based
Text: as §1

Kleb. pneumo. 4200 = test: In vivo mouse protection (Table 2), Kleb. pneumo. 4200
Text: as §1

Serra. Marc. ATCC 13880 = test: MIC in vitro (Table 1), Serra. Marc. ATCC 13880; format: cell-based
Text: as §1

[1] = system: Entero. aerog. ATCC 13048; test: MIC in vitro (Table 1), Entero. aerog. ATCC 13048; format: cell-based
Text: as §1

Shigella HH 117 = test: MIC in vitro (Table 1), Shigella HH 117; format: cell-based
Text: as §1, with “The compounds of Formula I have antibacterial activity against both Gram-positive and Gram-negative organisms. […] Compound” for “Compound”

E. coli HH 33779 = test: MIC in vitro (Table 1), E. coli HH 33779; format: cell-based
Text: as §1

Pseudo. sp. HH 63 = test: MIC in vitro (Table 1), Pseudo. sp. HH 63; format: cell-based; conditions: in vitro, Pseudo. sp. HH 63; read-out: MIC
Text: as §1, with “The compounds of Formula I have antibacterial activity against both Gram-positive and Gram-negative organisms. […] Compound” for “Compound”

S. aureus HH 127 = test: MIC in vitro (Table 1), S. aureus HH 127; format: cell-based; conditions: Staphylococcus aureus
Text: as §1

[2] = Salmonella, ATCC12176, in vitro, read-out: MIC
[3] = SK23390, in vitro, S. aureus SK 23390, read-out: MIC
[4] = HH31254, in vitro, Entero. cloacae HH 31254, read-out: MIC
[5] = Escherichia coli, 12140, po, E. coli 12140, p.o.
[6] = Escherichia coli, 12140, sc, E. coli 12140, s.c.
[7] = Enterococcus faecalis, read-out: MIC
[8] = in vitro, Kleb. pneumo. SK 4200, read-out: MIC
[9] = in vitro, Serra. Marc. ATCC 13880, read-out: MIC
[10] = in vitro, Entero. aerog. ATCC 13048, read-out: MIC
[11] = Shigella, HH117, in vitro, read-out: MIC
[12] = Escherichia coli, HH33779, in vitro, E. coli HH 33779, read-out: MIC
[13] = HH127, in vitro, S. aureus HH 127, read-out: MIC

| Structure (SMILES) | MIC (Salmonella ATCC 12176; [2]) [µg/mL] | MIC (Kleb. pneumo. SK 1200) [µg/mL] | MIC (Kleb. pneumo. SK 1200; read-out: MIC) [µg/mL] | MIC (E. coli SK 12140) [µg/mL] | MIC (S. aureus SK 23390; [3]) [µg/mL] | MIC (Entero. cloacae HH 31254; [4]) [µg/mL] | ED50 (E. coli 12140; [5]) [mg/kg] | ED50 (E. coli 12140; [6]) [mg/kg] | MIC (Strep. Faecalis HH 34358; [7]) [µg/mL] | MIC (Kleb. pneumo. SK 4200; [8]) [µg/mL] | ED50 (Kleb. pneumo. 4200; po, Kleb. pneumo. 4200, p.o.) [mg/kg] | MIC (Serra. Marc. ATCC 13880) [µg/mL] | MIC (Serra. Marc. ATCC 13880; [9]) [µg/mL] | MIC [1, 10] [µg/mL] | MIC (Shigella HH 117; [11]) [µg/mL] | MIC (E. coli HH 33779; [12]) [µg/mL] | MIC (Pseudo. sp. HH 63) [µg/mL] | MIC (Proteus morgani 179; read-out: MIC) [µg/mL] | MIC (E. coli SK 12140; read-out: MIC) [µg/mL] | MIC (S. aureus HH 127; [13]) [µg/mL] | other results |
| --- | --- | --- | --- | --- | --- | --- | --- | --- | --- | --- | --- | --- | --- | --- | --- | --- | --- | --- | --- | --- | --- |
| O=C(O)Cn1nnnc1SCC1=C(C(=O)O)N2C(=O)C(NC(=O)[C@H](O)c3ccccc3)[C@H]2SC1 (stereo partly drawn) [I, 7-D-Mandelamido-3-(1-carboxymethyltetrazol-5-ylthiomethyl)-3-cephem-4-carboxylic acid] | 1.6 (≈ 3.16 µM) | 1.6 (≈ 3.16 µM) | 0.8 (≈ 1.58 µM) | 1.6 (≈ 3.16 µM) | 3.1 (≈ 6.12 µM) | 0.8 (≈ 1.58 µM) | 50 | 1.56 | 100 (≈ 197 µM) | 0.8 (≈ 1.58 µM) | 25 | 25 (≈ 49.4 µM) | 100 (≈ 197 µM) | 6.3 (≈ 12.4 µM) | 1.6 (≈ 3.16 µM) | 6.3 (≈ 12.4 µM) | > 200 | – | – | – | MIC (Proteus morgani 179): 3.1 µg/mL (≈ 6.12 µM); MIC (Salmonella ATCC 12176; in vitro): 0.8 µg/mL (≈ 1.58 µM); MIC (S. aureus SK 23390; SK23390): 1.6 µg/mL (≈ 3.16 µM); MIC (Kleb. pneumo. SK 4200): 1.6 µg/mL (≈ 3.16 µM); MIC [1]: 12.5 µg/mL (≈ 24.7 µM); MIC (Shigella HH 117; in vitro): 0.8 µg/mL (≈ 1.58 µM); MIC (E. coli HH 33779; Escherichia coli, HH33779): 1.6 µg/mL (≈ 3.16 µM); MIC (S. aureus HH 127; HH127): 6.3 µg/mL (≈ 12.4 µM) |
| N[C@@H](C(=O)NC1C(=O)N2C(C(=O)O)=C(CSc3nnnn3CC(=O)O)CS[C@H]12)c1ccc(O)cc1 (stereo partly drawn) [II, 7-(D-α-Amino-4-hydroxyphenylacetamido)-3-(1-carboxymethyl-tetrazol-5-ylthiomethyl)-3-cephem-4-carboxylic acid] | 1.6 (≈ 3.07 µM) | 6.3 (≈ 12.1 µM) | – | – | 12.5 (≈ 24 µM) | 1.6 (≈ 3.07 µM) | – | – | 100 (≈ 192 µM) | 1.6 (≈ 3.07 µM) | 13.2 | – | > 200 | 25 (≈ 47.9 µM) | 6.3 (≈ 12.1 µM) | 12.5 (≈ 24 µM) | > 200 | > 200 | 3.1 (≈ 5.94 µM) | 12.5 (≈ 24 µM) | – |
| NC(=O)Cn1nnnc1SCC1=C(C(=O)O)N2C(=O)C(NC(=O)[C@H](N)c3ccc(O)cc3)[C@H]2SC1 (stereo partly drawn) [VI, 7-(D-α-Amino-4-hydroxyphenylacetamido) -3-(1-carbamoylmethyltetrazol-5-ylthiomethyl) -3-cephem-4-carboxylic acid] | 1.6 (≈ 3.07 µM) | – | 6.3 (≈ 12.1 µM) | – | 6.3 (≈ 12.1 µM) | – | – | – | 50 (≈ 96.1 µM) | 12.5 (≈ 24 µM) | 4 | – | 100 (≈ 192 µM) | 6.3 (≈ 12.1 µM) | 3.1 (≈ 5.96 µM) | 6.3 (≈ 12.1 µM) | > 200 | 50 (≈ 96.1 µM) | 6.3 (≈ 12.1 µM) | 6.3 (≈ 12.1 µM) | MIC (Entero. cloacae HH 31254; HH31254): 3.1 µg/mL (≈ 5.96 µM); ED50 (Kleb. pneumo. 4200; sc, Kleb. pneumo. 4200, s.c.): 0.92 mg/kg |
| NC(=O)CCn1nnnc1SCC1=C(C(=O)O)N2C(=O)C(NC(=O)[C@H](O)c3ccccc3)[C@H]2SC1 (stereo partly drawn) [VII, 7-D-Mandelamido-3-[1-(2-carbamoylethyl)tetrazol-5-ylthiomethyl]-3-cephem-4-carboxylic acid] | 0.2 (≈ 0.385 µM) | – | 0.8 (≈ 1.54 µM) | 0.4 (≈ 0.77 µM) | 0.8 (≈ 1.54 µM) | 1.6 (≈ 3.08 µM) | 25 | 0.86 | 12.5 (≈ 24.1 µM) | 0.8 (≈ 1.54 µM) | 17 | 6.3 (≈ 12.1 µM) | 50 (≈ 96.2 µM) | – | 0.2 (≈ 0.385 µM) | 1.6 (≈ 3.08 µM) | > 200 | 1.6 (≈ 3.08 µM) | 0.8 (≈ 1.54 µM) | – | MIC (Proteus morgani 179): 0.8 µg/mL (≈ 1.54 µM); MIC (S. aureus SK 23390; SK23390): 0.4 µg/mL (≈ 0.77 µM); MIC (Entero. cloacae HH 31254; HH31254): 0.4 µg/mL (≈ 0.77 µM); MIC (Strep. Faecalis HH 34358): 25 µg/mL (≈ 48.1 µM); MIC (Kleb. pneumo. SK 4200): 0.4 µg/mL (≈ 0.77 µM); ED50 (Kleb. pneumo. 4200; sc, Kleb. pneumo. 4200, s.c.): 0.78 mg/kg; MIC (Shigella HH 117; in vitro): 0.4 µg/mL (≈ 0.77 µM); MIC (E. coli HH 33779; in vitro, E. coli HH 33779): 3.1 µg/mL (≈ 5.97 µM) |
| O=C(O)CCn1nnnc1SCC1=C(C(=O)O)N2C(=O)C(NC(=O)[C@H](O)c3ccccc3)[C@H]2SC1 (stereo partly drawn) [VIII, 7-D-Mandelamido-3-[1-(2-carboxyethyl)tetrazol-5-ylthiomethyl]-3-cephem-4-carboxylic acid] | 0.8 (≈ 1.54 µM) | 0.8 (≈ 1.54 µM) | 1.6 (≈ 3.07 µM) | 0.4 (≈ 0.768 µM) | – | – | 50 | 0.86 | 50 (≈ 96.1 µM) | 0.8 (≈ 1.54 µM) | 25 | 12.5 (≈ 24 µM) | 50 (≈ 96.1 µM) | – | 0.8 (≈ 1.54 µM) | – | > 200 | 6.3 (≈ 12.1 µM) | 1.6 (≈ 3.07 µM) | 1.6 (≈ 3.07 µM) | MIC (Salmonella ATCC 12176; in vitro): 0.4 µg/mL (≈ 0.768 µM); MIC (Entero. cloacae HH 31254; HH31254): 3.1 µg/mL (≈ 5.96 µM); MIC (Strep. Faecalis HH 34358): 100 µg/mL (≈ 192 µM); MIC (Kleb. pneumo. SK 4200; in vitro, Kleb. pneumo. SK 4200): 1.6 µg/mL (≈ 3.07 µM); ED50 (Kleb. pneumo. 4200; sc, Kleb. pneumo. 4200, s.c.): 0.46 mg/kg; MIC (Serra. Marc. ATCC 13880; in vitro, Serra. Marc. ATCC 13880): 100 µg/mL (≈ 192 µM); MIC [1]: 3.1 µg/mL (≈ 5.96 µM); MIC (S. aureus HH 127; HH127): 3.1 µg/mL (≈ 5.96 µM) |
